Each structure is given as a SMILES string.

The assay concerns the target T1, 11β-HSD1 (Homo sapiens, UniProt P28845).
T1 construct: detecting cortisol generated from cortisterone by human liver microsomes; from tissue; host or cells: human liver microsomes
The assay is described as follows: In vitro inhibition of 11β-HSD1, HTRF detection of cortisol generated by human liver microsomes. The assay is classed as biochemical. As to conditions: compound concentration 1 μM, 100% indicates no inhibition, zero or below zero indicates complete inhibition, cortisone 80 nM, 1 hour at 37° C., read-out: % CTL at 1 μM. The procedure: Briefly, compounds were incubated for 1 hour at 37° C. in Tris buffer (20 mM tris, 5 mM EDTA, pH 6.0) containing NADPH (200 μM) and cortisone (80 nM). Cortisol generated in the reaction is then detected with a competitive immunoassay, involving two HTRF conjugates: cortisol linked to XL665 and anti-cortisol antibody labeled with Europium cryptate. The incubation period for detection reaction was typically 2 hours. The amount of cortisol is determined by reading the time-resolved fluorescence of the wells (Ex 320/75 nm; Em 615/8.5 nm and 665/7.5 nm). The ratio of the two emission signals is then calculated (Em665*10000/Em615). […] Each assay also contained a calibration curve with cortisol to transform the fluorescent data into cortisol concentrations. Percent inhibition of each compound was determined relative to the carbenoxolone signal and IC50 curves were generated.
The % CTL values of some example compounds at a concentration of 1 μM are provided in the following Table 2 wherein 100% indicates no inhibition and a value of zero or below zero indicates complete inhibition. The measurement of % CTL is described hereinbefore.
A general note: Time-resolved FRET reads energy transfer from a long-lived donor to a nearby acceptor.

T1 sequence (P28845 whole entry): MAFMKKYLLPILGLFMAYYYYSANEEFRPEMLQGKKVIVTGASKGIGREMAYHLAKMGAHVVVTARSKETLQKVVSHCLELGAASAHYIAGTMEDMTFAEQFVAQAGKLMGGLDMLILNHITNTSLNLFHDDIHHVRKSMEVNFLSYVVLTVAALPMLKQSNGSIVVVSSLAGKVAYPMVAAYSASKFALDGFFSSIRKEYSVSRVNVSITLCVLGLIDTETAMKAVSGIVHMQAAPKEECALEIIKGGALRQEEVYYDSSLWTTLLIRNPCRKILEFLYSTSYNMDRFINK

For the molecule `CC1(C)[C@H]2Cc3c(O)cccc3[C@]1(C)CCN2C(=O)N1CCCCC1` [Example 1, [(2R,6S)-10-Hydroxy-6,11,11-trimethyl-1,2,5,6-tetrahydro-4H-2,6-methano-benzo[d]azocin-3-yl]-piperidin-1-yl-methanone], the remaining activity at 1 µM was -46%. For the molecule `CC1(C)[C@H]2Cc3c(O)cccc3[C@]1(C)CCN2C(=O)N1CCCC1` [Example 2], the remaining activity at 1 µM is 18%. With `CC1(C)[C@H]2Cc3c(O)cccc3[C@]1(C)CCN2C(=O)N1CCOCC1` [Example 3], the remaining activity at 1 µM was 84%. With `CC1(C)[C@H]2Cc3c(O)cccc3[C@]1(C)CCN2C(=O)N1CCc2ccsc2C1` [Example 7, (4,7-Dihydro-5H-thieno[2,3-c]pyridin-6-yl)-[(2R,6S)-10-hydroxy-6,11,11-trimethyl-1,2,5,6-tetrahydro-4H-2,6-methano-benzo[d]azocin-3-yl]-methanone], the remaining activity at 1 µM was -32%. Then `CC1(C)[C@H]2Cc3c(O)cccc3[C@]1(C)CCN2C(=O)N1CCc2sccc2C1` [Example 8], with -27%. For `CC1CCN(C(=O)N2CC[C@@]3(C)c4cccc(O)c4C[C@@H]2C3(C)C)CC1` [Example 9], the remaining activity at 1 µM is -14%. For the molecule `CC1(C)[C@H]2Cc3c(O)cccc3[C@]1(C)CCN2C(=O)N1Cc2ccccc2C1` [Example 10], the remaining activity at 1 µM came out at 53%. In the case of `CC1(C)[C@H]2Cc3c(O)cccc3[C@]1(C)CCN2C(=O)N1CCc2ccccc2C1` [Example 11] it was 18%. Then `COC1CCN(C(=O)N2CC[C@@]3(C)c4cccc(O)c4C[C@@H]2C3(C)C)CC1` [Example 12], with -39%. In the case of `CC1(C)[C@H]2Cc3c(O)cccc3[C@]1(C)CCN2C(=O)N1CCC(O)CC1` [Example 13], the remaining activity at 1 µM is -53%. As for `CC1(C)[C@H]2Cc3c(O)cccc3[C@]1(C)CCN2C(=O)N1C2CCC1CC(O)C2` (stereo partly drawn) [Example 14], the remaining activity at 1 µM was -46%. As to `CC1(C)[C@H]2Cc3c(O)cccc3[C@]1(C)CCN2C(=O)N1CCc2nc[nH]c2C1` [Example 15], the remaining activity at 1 µM was found to be 14%.

In the case of `CC1(C)[C@H]2Cc3c(O)cccc3[C@]1(C)CCN2C(=O)N1CCCc2ccccc21` [Example 16], the remaining activity at 1 µM was -41%. Take `CC1(C)[C@H]2Cc3c(O)cccc3[C@]1(C)CCN2C(=O)N1[C@@H]2CC[C@H]1C[C@@H](c1ccc(F)cc1)C2` [Example 17]: the remaining activity at 1 µM was -43%. `CC1(C)[C@H]2Cc3c(O)cccc3[C@]1(C)CCN2C(=O)N1CCc2ccccc21` [Example 18]: the remaining activity at 1 µM was -8%. With `CC1(C)[C@H]2Cc3ccccc3[C@]1(C)CCN2C(=O)N1CCCCC1` [Example 19], the remaining activity at 1 µM is -47%. Then `C[C@@H]1[C@H]2Cc3ccc(O)cc3[C@]1(C)CCN2C(=O)N1CCCCC1` [Example 20], with -39%; and `C[C@@H]1[C@H]2Cc3ccc(C#N)cc3[C@]1(C)CCN2C(=O)N1CCCCC1` [Example 21], with -28%; and `CC1(C)[C@H]2Cc3c(O)cccc3[C@]1(C)CCN2C(=O)N1CCC(CO)C1` (stereo partly drawn) [Example 22], with -4%. As to `CC1(C)[C@H]2Cc3c(O)cccc3[C@]1(C)CCN2C(=O)N1CCCC(O)C1` (stereo partly drawn) [Example 23], the remaining activity at 1 µM is -9%.

As for `CC1(C)[C@H]2Cc3c(O)cccc3[C@]1(C)CCN2C(=O)N1CC(O)C1` [Example 24], the remaining activity at 1 µM worked out at 70%. `CC1(C)[C@H]2Cc3c(O)cccc3[C@]1(C)CCN2C(=O)N1CCC(CO)CC1` [Example 25]: the remaining activity at 1 µM is -43%.

In the case of `CC1(C)[C@H]2Cc3c(O)cccc3[C@]1(C)CCN2C(=O)N1CCCC(O)CC1` (stereo partly drawn) [Example 26], the remaining activity at 1 µM is -41%. Turning to `CC1(O)CCN(C(=O)N2CC[C@@]3(C)c4cccc(O)c4C[C@@H]2C3(C)C)CC1` [Example 27], the remaining activity at 1 µM is -41%. `CC1(C)[C@H]2Cc3c(O)cccc3[C@]1(C)CCN2C(=O)N1CCCC1CO` (stereo partly drawn) [Example 28]: the remaining activity at 1 µM is 36%. Regarding `CC1(C)[C@H]2Cc3c(O)cccc3[C@]1(C)CCN2C(=O)N1CCC(O)C1` (stereo partly drawn) [Example 29], the remaining activity at 1 µM stood at 30%. For `CC1(C)[C@H]2Cc3c(O)cccc3[C@]1(C)CCN2C(=O)N1CCCC(CO)C1` (stereo partly drawn) [Example 30], the remaining activity at 1 µM was -54%.

Consider `COc1cccc2c1C[C@H]1N(C(=O)N3CCCCC3)CC[C@]2(C)C1(C)C` [Example 31, [(2R,6S)-10-Methoxy-6,11,11-trimethyl-1,2,5,6-tetrahydro-4H-2,6-methano-benzo[d]azocin-3-yl]-piperidin-1-yl-methanone], for which the remaining activity at 1 µM was -6%. For the molecule `CC1(C)[C@H]2Cc3c(OCc4ccccc4)cccc3[C@]1(C)CCN2C(=O)N1CCCCC1` [Example 32], the remaining activity at 1 µM was found to be 82%.

Regarding `CC1(C)[C@H]2Cc3c(OCC#N)cccc3[C@]1(C)CCN2C(=O)N1CCCCC1` [Example 33], the remaining activity at 1 µM was found to be 23%. Consider `CC1(C)[C@H]2Cc3c(ccc(C#N)c3O)[C@]1(C)CCN2C(=O)N1CCCCC1` [Example 35, (2R,6S)-10-Hydroxy-6,11,11-trimethyl-3-(piperidine-1-carbonyl)-1,2,3,4,5,6-hexahydro-2,6-methano-benzo[d]azocine-9-carbonitrile], for which the remaining activity at 1 µM was -30%. With `CC1(C)[C@H]2Cc3cc(C#N)ccc3[C@]1(C)CCN2C(=O)N1CCCCC1` [Example 36, (2R,6S)-6,11,11-Trimethyl-3-(piperidine-1-carbonyl)-1,2,3,4,5,6-hexahydro-2,6-methano-benzo[d]azocine-9-carbonitrile], the remaining activity at 1 µM was -31%. For `CC1(C)[C@H]2Cc3c(O)cccc3[C@]1(C)CCN2C(=O)N1CCC(O)(CO)CC1` [Example 37], the remaining activity at 1 µM was -7%. On to `CC1(C)[C@H]2Cc3c(O)cccc3[C@]1(C)CCN2C(=O)N1C2CCCC1CC(O)C2` (stereo partly drawn) [Example 40], for which the remaining activity at 1 µM was -17%. As for `CC1(C)[C@H]2Cc3c(O)cccc3[C@]1(C)CCN2C(=O)N1CCCC(C(N)=O)C1` (stereo partly drawn) [Example 41], the remaining activity at 1 µM is -56%. For the molecule `CC1(C)[C@H]2Cc3c(O)cccc3[C@]1(C)CCN2C(=O)N1CCCC(C(=O)Nc2ccccc2)C1` (stereo partly drawn) [Example 42], the remaining activity at 1 µM is 32%.

For `CC1(C)[C@H]2Cc3c(O)cccc3[C@]1(C)CCN2C(=O)N1CCCC2(CCCNC2=O)C1` (stereo partly drawn) [Example 43], the remaining activity at 1 µM is -45%.

`CC1(C)[C@H]2Cc3c(O)cccc3[C@]1(C)CCN2C(=O)N1CCc2cc(O)ccc2C1` [Example 44]: the remaining activity at 1 µM is -4%. Take `CC1(C)[C@H]2Cc3c(O)cccc3[C@]1(C)CCN2C(=O)N1CCc2cccc(O)c2C1` [Example 46, (8-Hydroxy-3,4-dihydro-1H-isoquinolin-2-yl)-[(2R,6S)-10-hydroxy-6,11,11-trimethyl-1,2,5,6-tetrahydro-4H-2,6-methano-benzo[d]azocin-3-yl]-methanone]: the remaining activity at 1 µM was -10%. In the case of `CC1(C)[C@H]2Cc3c(O)cccc3[C@]1(C)CCN2C(=O)N1CCn2cnnc2C1` [Example 47] it was 94%.

Take `Cc1ccc2c(c1)CCCN2C(=O)N1CC[C@@]2(C)c3cccc(O)c3C[C@@H]1C2(C)C` [Example 48]: the remaining activity at 1 µM was -18%. Turning to `CC1(C)[C@H]2Cc3c(O)cccc3[C@]1(C)CCN2C(=O)N1CCCc2cc(NC(=O)C(F)(F)F)ccc21` [Example 49], the remaining activity at 1 µM is 23%. With `CC1(C)[C@H]2Cc3c(O)cccc3[C@]1(C)CCN2C(=O)N1CCC(C(N)=O)CC1` [Example 50], the remaining activity at 1 µM was -20%. Consider `CC(C)(C)C1COc2ccccc2N1C(=O)N1CC[C@@]2(C)c3cccc(O)c3C[C@@H]1C2(C)C` (stereo partly drawn) [Example 51], for which the remaining activity at 1 µM amounted to 94%.

As to `CC1(C)[C@H]2Cc3c(O)cccc3[C@]1(C)CCN2C(=O)N1CCCC(c2nc3ccccc3[nH]2)C1` (stereo partly drawn) [Example 52], the remaining activity at 1 µM came out at 27%.

Regarding `CC1(C)[C@H]2Cc3c(O)cccc3[C@]1(C)CCN2C(=O)N1CCc2cc(O)ccc21` [Example 53], the remaining activity at 1 µM came out at 7%. For the molecule `CC1(O)CCN(C(=O)N2CC[C@@]3(C)c4ccccc4C[C@@H]2C3(C)C)CC1` [Example 54], the remaining activity at 1 µM was -25%. Regarding `CC1(C)[C@H]2Cc3c(O)cccc3[C@]1(C)CCN2C(=O)N1CCCC2(CCNC2=O)C1` (stereo partly drawn) [Example 55], the remaining activity at 1 µM was -31%. In the case of `CC1(C)[C@H]2Cc3c(O)cccc3[C@]1(C)CCN2C(=O)N1CCc2ccc(O)cc2C1` [Example 58], the remaining activity at 1 µM was -37%. `CC1(C)[C@H]2Cc3c(O)cccc3[C@]1(C)CCN2C(=O)N1CCCC(c2nnn[nH]2)C1` (stereo partly drawn) [Example 59]: the remaining activity at 1 µM turned out to be 70%. Take `CC1(C)[C@H]2Cc3ccccc3[C@]1(C)CCN2C(=O)N1CCCC2(CCCNC2=O)C1` (stereo partly drawn) [Example 60]: the remaining activity at 1 µM is -19%. In the case of `CC1(C)[C@H]2Cc3ccccc3[C@]1(C)CCN2C(=O)N1CCC(c2ccccc2)C1` (stereo partly drawn) [Example 61] it was 7%; in that of `CCOC(=O)[C@H]1CCCN(C(=O)N2CC[C@@]3(C)c4ccccc4C[C@@H]2C3(C)C)C1` [Example 62], 13%; in that of `CCOC(=O)C1CCCN(C(=O)N2CC[C@@]3(C)c4ccccc4C[C@@H]2C3(C)C)C1` (stereo partly drawn) [Example 63], 47%.

(Values after patent US20110028445A1, “Urea derivatives of benzomorphanes and related scaffolds, medicaments containing such compounds and their use” (BOEHRINGER INGELHEIM INTERNATIONAL GMBH, priority 2008, published 2011).)
